Species: Rattus norvegicus
Experiment: Open TG-GATES - Regimen: Single
Format: toxicity, organism-based, Sprague-Dawley
Parameters: regimen Single, gender Male, age 6 weeks
Conditions: in vivo, po, 0 mg/kg, route gavage, dose level Control; for APTT / Bas / Eos / Fbg / Hb / Ht / Lym / MCH / MCHC / MCV / Mono / Neu / PT / Plat / RBC / Ret / WBC: tissue Blood; for KIDNEY_L / KIDNEY_R / KIDNEY_TOTAL: tissue Kidney; for LIVER: tissue Liver; for A/G / ALP / ALT / AST / BUN / CRE / Ca / Cl / DBIL / GLC / IP / LDH / Na / PL / RALB / TBIL / TC / TG / TP / gamma-GTP: tissue Plasma

Compound `NC(N)=Nc1nc(CSCCC(N)=NS(N)(=O)=O)cs1` [FAMOTIDINE] has a TERMINAL_BW (3 h) of 217.3 g, an APTT (3 h) of 20.1 s and a Bas (3 h) of 0%. For the same compound, the Eos (3 h) was 1%, the Fbg (3 h) was 209.8 mg/dL and the Hb (3 h) was 13.2 g/dL. It also gave a Ht (3 h) of 37.2%, a Lym (3 h) of 64.8% and an MCH (3 h) of 22.3 pg. The MCHC (3 h) was 35.5%, the MCV (3 h) was 62.6 fL and the Mono (3 h) was 3.8%. It also gave a Neu (3 h) of 26.8%, a PT (3 h) of 12.5 s and a Plat (3 h) of 110.5 x10_4/uL. It also gave an RBC (3 h) of 593.6 x10_4/ul, a Ret (3 h) of 8.2% and a WBC (3 h) of 81.2 x10_2/uL. The KIDNEY_L (3 h) was 1 g, the KIDNEY_R (3 h) was 1 g and the KIDNEY_TOTAL (3 h) was 1.9 g. The LIVER (3 h) was 10.4 g, the A/G (3 h) was 1.7 and the ALP (3 h) was 809.6 IU/L. The ALT (3 h) was 39 IU/L, the AST (3 h) was 71 IU/L and the BUN (3 h) was 10.8 mg/dL. It also gave a CRE (3 h) of 0.4 mg/dL, a Ca (3 h) of 10.8 mg/dL and a Cl (3 h) of 103.2 meq/L. It also gave a DBIL (3 h) of 0.078 mg/dL, a GLC (3 h) of 197.2 mg/dL and an IP (3 h) of 9.1 mg/dL. For the same compound, the LDH (3 h) was 196.4 IU/L, the Na (3 h) was 140.8 meq/L and the PL (3 h) was 139 mg/dL. The RALB (3 h) was 3.4 g/dL, the TBIL (3 h) was 0.1 mg/dL and the TC (3 h) was 77.4 mg/dL. The TG (3 h) was 55.8 mg/dL, the TP (3 h) was 5.4 g/dL and the gamma-GTP (3 h) was 1.4 IU/L. For the same compound, the TERMINAL_BW (6 h) was 212.9 g, the APTT (6 h) was 20 s and the Bas (6 h) was 0%. The Eos (6 h) was 0.8%, the Fbg (6 h) was 218.6 mg/dL and the Hb (6 h) was 13.4 g/dL. It also gave a Ht (6 h) of 37.6%, a Lym (6 h) of 79.4% and an MCH (6 h) of 22 pg. For the same compound, the MCHC (6 h) was 35.7%, the MCV (6 h) was 61.7 fL and the Mono (6 h) was 2.4%. For the same compound, the Neu (6 h) was 15.2%, the PT (6 h) was 12.4 s and the Plat (6 h) was 119.6 x10_4/uL. For the same compound, the RBC (6 h) was 610.2 x10_4/ul, the Ret (6 h) was 6.9% and the WBC (6 h) was 94.2 x10_2/uL. For the same compound, the KIDNEY_L (6 h) was 1 g, the KIDNEY_R (6 h) was 1 g and the KIDNEY_TOTAL (6 h) was 2 g. It also gave an LIVER (6 h) of 9.3 g, an A/G (6 h) of 1.5 and an ALP (6 h) of 928.8 IU/L. It also gave an ALT (6 h) of 32.6 IU/L, an AST (6 h) of 64.2 IU/L and a BUN (6 h) of 9.2 mg/dL. For the same compound, the CRE (6 h) was 0.4 mg/dL, the Ca (6 h) was 10.7 mg/dL and the Cl (6 h) was 102.6 meq/L. For the same compound, the DBIL (6 h) was 0.068 mg/dL, the GLC (6 h) was 193.8 mg/dL and the IP (6 h) was 9 mg/dL. The LDH (6 h) was 193.6 IU/L, the Na (6 h) was 140 meq/L and the PL (6 h) was 142.8 mg/dL. The RALB (6 h) was 3.3 g/dL, the TBIL (6 h) was 0.1 mg/dL and the TC (6 h) was 80.6 mg/dL. The TG (6 h) was 60 mg/dL, the TP (6 h) was 5.5 g/dL and the gamma-GTP (6 h) was 1 IU/L. The TERMINAL_BW (9 h) was 209.9 g, the APTT (9 h) was 19.9 s and the Bas (9 h) was 0%. For the same compound, the Eos (9 h) was 1%, the Fbg (9 h) was 228.2 mg/dL and the Hb (9 h) was 13.3 g/dL. It also gave a Ht (9 h) of 36.7%, a Lym (9 h) of 65.4% and an MCH (9 h) of 22.9 pg. The MCHC (9 h) was 36.2%, the MCV (9 h) was 63.3 fL and the Mono (9 h) was 2.4%. The Neu (9 h) was 29%, the PT (9 h) was 12.7 s and the Plat (9 h) was 118.2 x10_4/uL. The RBC (9 h) was 580.8 x10_4/ul, the Ret (9 h) was 7.5% and the WBC (9 h) was 106.4 x10_2/uL. For the same compound, the KIDNEY_L (9 h) was 1 g, the KIDNEY_R (9 h) was 1 g and the KIDNEY_TOTAL (9 h) was 2 g. For the same compound, the LIVER (9 h) was 9.1 g, the A/G (9 h) was 1.5 and the ALP (9 h) was 883.2 IU/L. It also gave an ALT (9 h) of 28.4 IU/L, an AST (9 h) of 56.8 IU/L and a BUN (9 h) of 8.8 mg/dL. It also gave a CRE (9 h) of 0.3 mg/dL, a Ca (9 h) of 10.4 mg/dL and a Cl (9 h) of 102.8 meq/L. For the same compound, the DBIL (9 h) was 0.056 mg/dL, the GLC (9 h) was 205.2 mg/dL and the IP (9 h) was 9.4 mg/dL. It also gave an LDH (9 h) of 138.6 IU/L, a Na (9 h) of 140 meq/L and a PL (9 h) of 133.8 mg/dL. It also gave an RALB (9 h) of 3.2 g/dL, a TBIL (9 h) of 0.1 mg/dL and a TC (9 h) of 70.6 mg/dL. The TG (9 h) was 46.6 mg/dL, the TP (9 h) was 5.4 g/dL and the gamma-GTP (9 h) was 0.8 IU/L. For the same compound, the TERMINAL_BW (24 h) was 226.6 g, the APTT (24 h) was 19.6 s and the Bas (24 h) was 0%. It also gave an Eos (24 h) of 1%, a Fbg (24 h) of 232.4 mg/dL and a Hb (24 h) of 13.3 g/dL. It also gave a Ht (24 h) of 37.3%, a Lym (24 h) of 78.4% and an MCH (24 h) of 22.5 pg. It also gave an MCHC (24 h) of 35.7%, an MCV (24 h) of 63.2 fL and a Mono (24 h) of 2.8%. It also gave a Neu (24 h) of 15.8%, a PT (24 h) of 11.9 s and a Plat (24 h) of 126.9 x10_4/uL. It also gave an RBC (24 h) of 590 x10_4/ul, a Ret (24 h) of 6.6% and a WBC (24 h) of 84.4 x10_2/uL. The KIDNEY_L (24 h) was 1.1 g, the KIDNEY_R (24 h) was 1.1 g and the KIDNEY_TOTAL (24 h) was 2.1 g. For the same compound, the LIVER (24 h) was 11 g, the A/G (24 h) was 1.5 and the ALP (24 h) was 1002.2 IU/L. It also gave an ALT (24 h) of 34.2 IU/L, an AST (24 h) of 65.4 IU/L and a BUN (24 h) of 13.4 mg/dL. It also gave a CRE (24 h) of 0.4 mg/dL, a Ca (24 h) of 10.7 mg/dL and a Cl (24 h) of 102.6 meq/L. For the same compound, the DBIL (24 h) was 0.088 mg/dL, the GLC (24 h) was 186.4 mg/dL and the IP (24 h) was 7.3 mg/dL. It also gave an LDH (24 h) of 203.2 IU/L, a Na (24 h) of 139.4 meq/L and a PL (24 h) of 147.2 mg/dL. It also gave an RALB (24 h) of 3.4 g/dL, a TBIL (24 h) of 0.1 mg/dL and a TC (24 h) of 81.8 mg/dL. For the same compound, the TG (24 h) was 85.6 mg/dL, the TP (24 h) was 5.7 g/dL and the gamma-GTP (24 h) was 1 IU/L.

Source: ChEMBL document CHEMBL3885861, “Open TG-GATES”
